According to US20250339567A1, “COMPOUNDS WITH IMPROVED PHARMACOKINETICS FOR IMAGING AND THERAPY OF CANCER” (priority 2019, published 2025):
Starred links: 1 amine or outer side, 2 acyl side, 3 side chain; linkers in the order of their positions; H or OH if unused. Non-standard residues stand in square brackets, D forms with d. Residues, ends and D or L forms follow the SMILES beside them. *: point of attachment. DOTA = O=C(O)CN1CCN(CC(=O)O)CCN(CC(=O)*)CCN(CC(=O)O)CC1; αMeW = C[C@](N)(Cc1c[nH]c2ccccc12)C(=O)O; Sta = CC(C)C[C@H](N)[C@@H](O)CC(=O)O; Bta = N[C@@H](Cc1csc2ccccc12)C(=O)O; Gly(cPent) = N[C@H](C(=O)O)C1CCCC1; X1 = O=C(CN1CCC(N[*:1])CC1)[*:2]; Chg = N[C@H](C(=O)O)C1CCCCC1; dOrn = NCCC[C@@H](N)C(=O)O; hSer = N[C@@H](CCO)C(=O)O; Nle = CCCC[C@H](N)C(=O)O; dDap = NC[C@@H](N)C(=O)O; βAla = NCCC(=O)O

Experiment: Plasma studies: metabolic stability in vitro in human plasma (radio RP-HPLC)
Format: in vitro ADME
Experimental: Metabolic stability in vitro was determined applying a procedure published by Linder et al. that was slightly modified. Immediately after labeling, human (200 μL) or murine (100 μL) plasma was added and the mixture was incubated at 37° C. for 72±2 h (or 6±0.5 h). Proteins were precipitated by treatment with ice-cold EtOH (150 μL [human], 100 μL [murine]) and ice-cold MeCN (450 μL [human], 300 μL [murine]), followed by centrifugation for 20 min at 13000 rpm. The supernatants were decanted and further analyzed using radio RP-HPLC. […]

Amount of intact tracer after incubation in human plasma for 72 ± 2 h (n = 2) | SMILES
18.2 ± 1.9 | CC(C)C[C@H](NC(=O)C[C@H](O)[C@H](CC(C)C)NC(=O)[C@H](Cc1c[nH]cn1)NC(=O)CNC(=O)[C@@H](NC(=O)[C@H](C)NC(=O)[C@H](Cc1c[nH]c2ccccc12)NC(=O)[C@H](CCO)NC(=O)[C@@H](CCCNC(=N)N)NC(=O)CN1CCC(NC(=O)CN2CCN(CC(=O)O)CCN(CC(=O)O)CCN(CC(=O)O)CC2)CC1)C(C)C)C(N)=O [DOTA-[arg^6, Hse^7]MJ9] ({DOTA}-[X1][dR][hSer]WAVGH[Sta]L-NH2)
20.1 ± 0.7 | CC(C)C[C@H](NC(=O)C[C@H](O)[C@H](CC(C)C)NC(=O)[C@H](Cc1c[nH]cn1)NC(=O)CNC(=O)[C@@H](NC(=O)[C@H](C)NC(=O)[C@](C)(Cc1c[nH]c2ccccc12)NC(=O)[C@H](CCC(N)=O)NC(=O)[C@@H](CCCNC(=N)N)NC(=O)CN1CCC(NC(=O)CN2CCN(CC(=O)O)CCN(CC(=O)O)CCN(CC(=O)O)CC2)CC1)C(C)C)C(N)=O [DOTA-[arg^6, α-Me-Trp^8]MJ9] ({DOTA}-[X1][dR]Q[αMeW]AVGH[Sta]L-NH2)
13.5 ± 3.4 | CC(C)C[C@H](NC(=O)C[C@H](O)[C@H](CC(C)C)NC(=O)[C@H](Cc1c[nH]cn1)NC(=O)CNC(=O)[C@@H](NC(=O)[C@H](C)NC(=O)[C@H](Cc1c[nH]c2ccccc12)NC(=O)[C@H](CCC(N)=O)NC(=O)[C@@H](CCCNC(=N)N)NC(=O)CN1CCC(NC(=O)CN2CCN(CC(=O)O)CCN(CC(=O)O)CCN(CC(=O)O)CC2)CC1)C(C)C)C(N)=O [DOTA-[arg^6]MJ9] ({DOTA}-[X1][dR]QWAVGH[Sta]L-NH2)
22.6 ± 1.9 | CC(C)C[C@H](NC(=O)C[C@H](O)[C@H](CC(C)C)NC(=O)[C@H](Cc1c[nH]cn1)NC(=O)CNC(=O)[C@@H](NC(=O)[C@H](C)NC(=O)[C@](C)(Cc1c[nH]c2ccccc12)NC(=O)[C@H](CCC(N)=O)NC(=O)[C@@H](Cc1ccccc1)NC(=O)CN1CCC(NC(=O)CN2CCN(CC(=O)O)CCN(CC(=O)O)CCN(CC(=O)O)CC2)CC1)C1CCCCC1)C(N)=O [DOTA-[α-Me-Trp^8, Chg^10]MJ9] ({DOTA}-[X1][dF]Q[αMeW]A[Chg]GH[Sta]L-NH2)
25.5 ± 1.9 | CC(C)C[C@H](NC(=O)C[C@H](O)[C@H](CC(C)C)NC(=O)[C@H](Cc1c[nH]cn1)NC(=O)CNC(=O)[C@@H](NC(=O)[C@H](C)NC(=O)[C@](C)(Cc1c[nH]c2ccccc12)NC(=O)[C@H](CCC(N)=O)NC(=O)[C@@H](Cc1ccccc1)NC(=O)CN1CCC(NC(=O)CN2CCN(CC(=O)O)CCN(CC(=O)O)CCN(CC(=O)O)CC2)CC1)C1CCCC1)C(N)=O [DOTA-[α-Me-Trp^8, Cpg^10]MJ9] ({DOTA}-[X1][dF]Q[αMeW]A[Gly(cPent)]GH[Sta]L-NH2)
14.3 ± 1.2 | CC(C)C[C@H](NC(=O)C[C@H](O)[C@H](CC(C)C)NC(=O)[C@H](Cc1c[nH]cn1)NC(=O)CN(C)C(=O)[C@@H](NC(=O)[C@H](C)NC(=O)[C@](C)(Cc1c[nH]c2ccccc12)NC(=O)[C@H](CCC(N)=O)NC(=O)[C@@H](Cc1ccccc1)NC(=O)CN1CCC(NC(=O)CN2CCN(CC(=O)O)CCN(CC(=O)O)CCN(CC(=O)O)CC2)CC1)C(C)C)C(N)=O [DOTA-[α-Me-Trp^8, N—Me-Gly^11]MJ9]
22.1 ± 2.2 | CC(C)C[C@H](NC(=O)C[C@H](O)[C@H](CC(C)C)NC(=O)[C@H](Cc1c[nH]cn1)NC(=O)CNC(=O)[C@@H](NC(=O)[C@H](CO)NC(=O)[C@](C)(Cc1c[nH]c2ccccc12)NC(=O)[C@H](CCC(N)=O)NC(=O)[C@@H](Cc1ccccc1)NC(=O)CN1CCC(NC(=O)CN2CCN(CC(=O)O)CCN(CC(=O)O)CCN(CC(=O)O)CC2)CC1)C(C)C)C(N)=O [DOTA-[α-Me-Trp^8, Ser^9]MJ9] ({DOTA}-[X1][dF]Q[αMeW]SVGH[Sta]L-NH2)
10.2 ± 2.7 | CCCC[C@H](NC(=O)[C@H](Cc1ccccc1)NC(=O)[C@H](Cc1c[nH]cn1)NC(=O)CCNC(=O)[C@@H](NC(=O)[C@H](C)NC(=O)[C@](C)(Cc1c[nH]c2ccccc12)NC(=O)[C@H](CCC(N)=O)NC(=O)[C@@H](Cc1ccccc1)NC(=O)CN1CCN(CC(=O)O)CCN(CC(=O)O)CCN(CC(=O)O)CC1)C(C)C)C(N)=O [DOTA-[α-Me-Trp^8]UL] ({DOTA}-[dF]Q[αMeW]AV[βAla]HF[Nle]-NH2)
5.9 ± 0.5 | CC(C)C[C@H](NC(=O)C[C@H](O)[C@H](CC(C)C)NC(=O)[C@H](Cc1c[nH]cn1)NC(=O)CNC(=O)[C@@H](NC(=O)[C@H](C)NC(=O)[C@H](Cc1c[nH]c2ccccc12)NC(=O)[C@H](CCC(N)=O)NC(=O)[C@@H](Cc1ccccc1)NC(=O)CN1CCC(NC(=O)[C@@H](CN)NC(=O)[C@@H](CCCN)NC(=O)CN2CCN(CC(=O)O)CCN(CC(=O)O)CCN(CC(=O)O)CC2)CC1)C(C)C)C(N)=O [DOTA-orn^3-dap^4-MJ9] ({DOTA}-[dOrn][dDap][X1][dF]QWAVGH[Sta]L-NH2)
2.7 ± 0.3 | CC(C)C[C@H](NC(=O)C[C@H](O)[C@H](CC(C)C)NC(=O)[C@H](Cc1c[nH]cn1)NC(=O)CNC(=O)[C@@H](NC(=O)[C@H](C)NC(=O)[C@H](Cc1csc2ccccc12)NC(=O)[C@H](CCC(N)=O)NC(=O)[C@@H](Cc1ccccc1)NC(=O)CN1CCC(NC(=O)[C@@H](CN)NC(=O)[C@@H](CCCN)NC(=O)CN2CCN(CC(=O)O)CCN(CC(=O)O)CCN(CC(=O)O)CC2)CC1)C(C)C)C(N)=O [DOTA-orn^3-dap^4-[Bta^8]MJ9] ({DOTA}-[dOrn][dDap][X1][dF]Q[Bta]AVGH[Sta]L-NH2)
7.9 ± 2.5 | CC(C)C[C@H](NC(=O)C[C@H](O)[C@H](CC(C)C)NC(=O)[C@H](Cc1c[nH]cn1)NC(=O)CNC(=O)[C@@H](NC(=O)[C@H](C)NC(=O)[C@H](Cc1c[nH]c2ccccc12)NC(=O)[C@H](CCO)NC(=O)[C@@H](Cc1ccccc1)NC(=O)CN1CCC(NC(=O)[C@@H](CN)NC(=O)[C@@H](CCCN)NC(=O)CN2CCN(CC(=O)O)CCN(CC(=O)O)CCN(CC(=O)O)CC2)CC1)C(C)C)C(N)=O [DOTA-orn^3-dap^4-[Hse^7]MJ9] ({DOTA}-[dOrn][dDap][X1][dF][hSer]WAVGH[Sta]L-NH2)
16.6 ± 0.8 | CC(C)C[C@H](NC(=O)C[C@H](O)[C@H](CC(C)C)NC(=O)[C@H](Cc1c[nH]cn1)NC(=O)CNC(=O)[C@@H](NC(=O)[C@H](C)NC(=O)[C@](C)(Cc1c[nH]c2ccccc12)NC(=O)[C@H](CCC(N)=O)NC(=O)[C@@H](Cc1ccccc1)NC(=O)CN1CCC(NC(=O)[C@@H](CN)NC(=O)[C@@H](CCCN)NC(=O)CN2CCN(CC(=O)O)CCN(CC(=O)O)CCN(CC(=O)O)CC2)CC1)C(C)C)C(N)=O [DOTA-orn^3-dap^4-[α-Me-Trp^8]MJ9] ({DOTA}-[dOrn][dDap][X1][dF]Q[αMeW]AVGH[Sta]L-NH2)
4.3 ± 0.2 | CCCC[C@H](NC(=O)[C@H](Cc1ccccc1)NC(=O)[C@H](Cc1c[nH]cn1)NC(=O)CCNC(=O)[C@@H](NC(=O)[C@H](C)NC(=O)[C@H](Cc1c[nH]c2ccccc12)NC(=O)[C@H](CCC(N)=O)NC(=O)[C@@H](Cc1ccccc1)NC(=O)CN1CCN(CC(=O)O)CCN(CC(=O)O)CCN(CC(=O)O)CC1)C(C)C)C(N)=O [UL, reference compound] ({DOTA}-[dF]QWAV[βAla]HF[Nle]-NH2)
